# In patent US20040063725A1, “Novel n(phenylsulphonyl)glycine derivatives and their therapeutic use” (priority 2001, published 2004):
# Structures can show the parent of a compound that is named as a salt.
# System: formaldehyde-induced pain
# Assay: formaldehyde-induced pain test in the mouse (formalin test)
# Assay type: in vivo
# Settings: formaldehyde 0.92% in paw, licking time 15 to 30 min
# Experimental: The compounds of the present invention were evaluated for their analgesic property in the formaldehyde-induced pain test in the mouse (Shibata, M., Ohkubo, T., Takahashi, H. & R. Inoki. Modified formalin test: characteristic biphasic pain response. Pain, 38. 347-352). In summary, an administration of formaldehyde (0.92% in physiological serum) is made in the front paw and the licking time, which reflects the intensity of the pain, is recorded from 0 to 5 min (1st phase) and from 15 to 30 min (2nd phase) after the injection. The percentage inhibition of the second phase of licking induced by the formaldehyde is given, for some compounds according to the invention, in the following Table: […]
Molecule,% inhibition of the 2nd licking phase (10 mg/kg s.c.),% inhibition of the 2nd licking phase (30 mg/kg s.c.),further results
"Cc1c(Cl)ccc(S(=O)(=O)N(CCc2ccccc2)CC(=O)NCC(=O)N(CCC2CCNCC2)Cc2ccc(C(=N)N)cc2)c1Cl.O=C(O)C(F)(F)F.O=C(O)C(F)(F)F [Example 24, N-[2-[[[4-(aminoiminomethyl)phenyl]methyl](4-piperidinylethyl)amino]-2-oxoethyl]-2-[[(2,4-dichloro-3-methylphenyl)sulphonyl](2-phenylethyl)-amino]acetamide, bis Trifluoroacetate]",76%,,
"Cc1c(Cl)ccc(S(=O)(=O)N(CCc2ccccc2)CC(=O)NCC(=O)N(CCCN(C)C)Cc2ccc(C3=NCCN3)cc2)c1Cl [Example 35, 2-[[(2,4-dichloro-3-methylphenyl)sulphonyl](2-phenylethyl)amino]-N-[2-[[[4-(4,5-dihydro-1H-imidazol-2-yl)phenyl]methyl][3-(dimethylamino)propyl]amino]-2-oxoethyl]acetamide, Dihydrochloride]",92%,,
"Cc1c(Cl)ccc(S(=O)(=O)N(CCc2ccccc2)CC(=O)NCC(=O)N(CCCCN2CCCC2)CCCc2cnc[nH]2)c1Cl [Example 82, 2-[[(2,4-dichloro-3-methylphenyl)sulphonyl](2-phenylethyl)amino]-N-[2-[[3-(1H-imidazol-5-yl)propyl][4-(1-pyrrolidinyl)butyl]amino]-2-oxo-ethyl]acetamide, Dihydrochloride]",,,% inhibition of the 2nd licking phase (10 mg/kg i.p.): 63%
"N-[2-[(4-aminobutyl)(4-piperidinylmethyl)amino]-2-oxoethyl]-2-[[(2,4-dichloro-3-methylphenyl)sulphonyl](2-phenylethyl)amino]acetamide, Bis Trifluoroacetate [Example 25]",,87%,
"N-[2-[[[4-(aminoiminomethyl)phenyl]methyl][3-(dimethylamin)propyl]amino]-2-oxoethyl]-2-[[(2,4-dichloro-3-methylphenyl)sulphonyl](2-phenylethyl)amino]acetamide, Dihydrochloride [Example 23]",,98%,
